Where two headings read alike, the source gives them in different places.
Legend:
rat thyroid NIS = biological target: T1, rat thyroid NIS (Rattus norvegicus, UniProt Q63008); conditions: ref. [44], cited from earlier work; for Km: actively transported ions
T1 sequence (Q63008 1-618): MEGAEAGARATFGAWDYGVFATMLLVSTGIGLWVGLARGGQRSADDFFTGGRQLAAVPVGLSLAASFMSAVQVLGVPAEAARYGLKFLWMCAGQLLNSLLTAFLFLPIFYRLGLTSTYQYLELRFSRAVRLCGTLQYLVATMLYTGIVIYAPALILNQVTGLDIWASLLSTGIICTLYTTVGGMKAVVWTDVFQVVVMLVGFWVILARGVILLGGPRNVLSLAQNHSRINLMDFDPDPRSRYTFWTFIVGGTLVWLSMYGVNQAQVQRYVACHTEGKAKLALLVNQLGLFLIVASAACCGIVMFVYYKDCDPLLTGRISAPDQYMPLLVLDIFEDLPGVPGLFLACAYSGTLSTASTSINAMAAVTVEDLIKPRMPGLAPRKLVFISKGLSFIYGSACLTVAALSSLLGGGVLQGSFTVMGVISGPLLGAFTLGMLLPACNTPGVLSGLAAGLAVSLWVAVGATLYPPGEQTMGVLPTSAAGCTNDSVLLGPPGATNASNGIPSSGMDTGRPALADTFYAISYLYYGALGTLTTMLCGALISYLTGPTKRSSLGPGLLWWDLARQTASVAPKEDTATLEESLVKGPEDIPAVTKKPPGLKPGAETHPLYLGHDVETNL

[1] = system: NIS-expressing xenografted mammary adenocarcinoma (NAFA cells); type: in vivo, nude mice
Method: Animal model. […] Since erbB-2 (Neu) is one of the better known human breast cancer oncogenes, a mammary tumor cell line (NAFA) induced by oncogenic Neu was used. The NAFA cell line derived from the MMTV-NeuT mouse was grown in DMEM with 10% fetal bovine serum and 1% penicillin-streptomycin. […] Female nude mice (Charles River Laboratories) 4-6 weeks old were injected SC with 10^6 NAFA cells into the left groin.
Biodistribution. […] In order to block mg-NIS in expressing organs and tumor, control animals were injected with the above mixture of isotopes combined with 2 mg NaClO4. […] The % ID/g for each organ was determined, and RIs (% ID/g in the tumor divided by the % ID/g in normal tissue) were calculated.

hNIS = biological target: T2, hNIS (Homo sapiens, UniProt Q92911); test: Comparative 125I and 188Re uptake into hNIS-transfected and non-transfected MDCK cells; type: cell-based; conditions: for Km: hNIS-transfected MDCK cells, Lineweaver-Burk plot, 4-min initial rates, read-out: Km for influx
T2 construct: expressed in transfected cells; host or cells: MDCK (Madin-Darby canine kidney) cells, hNIS in pcDNA 3.1
T2 sequence (Q92911 1-643): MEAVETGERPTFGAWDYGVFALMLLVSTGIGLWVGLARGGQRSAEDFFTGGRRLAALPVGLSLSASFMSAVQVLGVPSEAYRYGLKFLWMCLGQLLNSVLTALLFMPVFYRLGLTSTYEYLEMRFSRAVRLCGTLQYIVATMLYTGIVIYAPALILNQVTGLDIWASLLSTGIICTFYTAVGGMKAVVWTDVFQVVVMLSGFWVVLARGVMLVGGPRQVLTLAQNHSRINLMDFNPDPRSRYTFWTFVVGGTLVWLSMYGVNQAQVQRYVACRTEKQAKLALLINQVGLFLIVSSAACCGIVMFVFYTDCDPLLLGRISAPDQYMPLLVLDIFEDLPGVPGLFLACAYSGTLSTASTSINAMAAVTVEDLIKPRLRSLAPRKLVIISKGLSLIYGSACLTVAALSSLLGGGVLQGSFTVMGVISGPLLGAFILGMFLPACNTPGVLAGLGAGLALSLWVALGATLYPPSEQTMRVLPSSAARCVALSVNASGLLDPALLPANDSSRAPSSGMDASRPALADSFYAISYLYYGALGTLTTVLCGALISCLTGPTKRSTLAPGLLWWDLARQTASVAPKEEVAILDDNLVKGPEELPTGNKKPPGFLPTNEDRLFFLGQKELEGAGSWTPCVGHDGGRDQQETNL
Method: Comparative ^125I and ^188Re uptake into the NIS-expressing cells. Both concentration dependence and kinetic experiments for ^125I and ^188ReO4^− in hNIS-transfected (hNIS in pcDNA 3.1 plasmid) and non-transfected MDCK (Madin-Darby canine kidney) cells were performed using the methods of Weiss et al. and Dai et al.. […] A 4-min time point was used to estimate initial rates for kinetic experiments. Saturation kinetics were analyzed by Lineweaver-Burk plot.

FRTL-5 cells = conditions: read-out: Km for ^125I^− influx; cited from earlier work
[2] = ref. [23]; cited from earlier work
[3] = system: NAFA cells-xenografted tumors; test: Treatment of nude mice bearing NAFA cells-xenografted tumors; type: in vivo; conditions: 1.5 mCi followed by 2nd dose of 1.5 mCi one week later; vs untreated tumors
Method: Animal model. To investigate the binding of ^125I and ^188Re to NIS-expressing mammary tumors, a xenografted mammary adenocarcinoma model in nude mice was used. Since erbB-2 (Neu) is one of the better known human breast cancer oncogenes, a mammary tumor cell line (NAFA) induced by oncogenic Neu was used. The NAFA cell line derived from the MMTV-NeuT mouse was grown in DMEM with 10% fetal bovine serum and 1% penicillin-streptomycin. […] Female nude mice (Charles River Laboratories) 4-6 weeks old were injected SC with 10^6 NAFA cells into the left groin. Ten days after injection the tumors reached 0.5-0.7 cm in diameter.
When the tumors reached 0.5-0.7 cm in diameter, the animals were treated with 1.5 mCi ^188ReO4^− followed by a 2nd dose of 1.5 mCi ^188ReO4^− one week later.

NAFA-cells xenografts = test: Histological analysis for apoptosis (Apoptag Plus kit) of NAFA-cells xenografts; type: in vivo, nude mice; conditions: 2×1.5 mCi, day 35 post-treatment; vs control tumors
Source text: At the completion of the experimental treatment with ^188Re-perrhenate, the animals were sacrificed, their tumors removed, fixed in buffered formaline, cut and analyzed for apoptosis using an Apoptag Plus® kit. Briefly, 3′-OH termini of DNA fragments, which are the hallmark of apoptosis, were labeled with digoxigenin-modified nucleotides by terminal deoxynucleotidyl transferase (TdT). […] The labeled DNA was detected using an anti-digoxigenin antibody, and the detection was performed using a chromagen. As a result the apoptotic cells were stained brown. The results are shown in FIGS. 5A-5B, where apoptotic cells appear lightly stained in the black-and-white image. […] This observation is consistent with the fact that particulate ionizing radiation is known to cause cell death through both apoptotic and necrotic pathways.

[4] = Dosimetry calculations (MIRDOSE 3) for 70-kg reference adult bearing a 2 g tumor; parameters: species or system human; conditions: using S-values for the whole body
Method: Dosimetry. The self-doses to major organs and tumors from ^131I and ^188Re in humans were calculated using MIRDOSE 3 software (ORNL) applying S-values for a 70-kg reference adult. “S” is an absorbed dose per unit cumulated activity. S-values are tabulated in the Medical Internal Radiation Dose pamphlet #11 published by the Society of Nuclear Medicine. The following formula [26] was used for conversion of time-activity data in mice into time-activity data in humans: % ID human organ=% ID/ganimal organ·(body massaninal/body masshuman)·organ masshuman.
It should be noted that dosimetry calculations in humans were performed with the sole purpose of comparing the therapeutic efficacy and potential damage to the stomach and thyroid from ^131I and ^188Re beta-particles, thus only “self” doses were calculated. […] However, in more comprehensive dosimetry calculations organ cross-irradiation from highly penetrative ^131I gamma-rays should be taken into consideration.

[5] = Safe dose study in healthy mice, 80 days observation, thyroid and stomach histology; type: in vivo; conditions: 1.5 mCi
Method: To establish the safe dose of ^188ReO4^− to treat the NIS-expressing tumors in mice, healthy mice were treated with 1.5 mCi ^188ReO4^− and observed for 80 days. […] After 80 days the animals were sacrificed, their thyroids and stomachs removed and analyzed histologically. FIGS. 3A-3C present the hematoxylin and eosin stained thyroid tissue from a control mouse, a mouse treated with 1.5 mCi ^188ReO4^−, and a mouse treated with 50 μCi ^131I^−. FIGS. 3D-3E show the stomachs from the control mouse and the mouse treated with 1.5 mCi ^188ReO4^−, respectively.

[O-][Cl+2]([O-])O [ClO3^−]
Km (rat thyroid NIS): 277 µM

[O-][Cl+3]([O-])([O-])O [ClO4^−, Na perchlorate, reference compound]
Effect of co-administered blocking agent on uptake of both isotopes by NIS-expressing organs ([1]; 2 mg NaClO4 co-injected, all 3 time points): significantly decreased uptake of both isotopes by the stomach, salivary glands and thyroid

O=[N+]([O-])O [NO3^−]
Km (rat thyroid NIS): 739 µM

[O]=[Re](=[O])(=[O])[O-] [ReO4^−]
Blocking of NIS (rat thyroid NIS): potent blocking agent for NIS

[I-].[Na+] [^125I^−, sodium iodide, reference compound]
Km (hNIS): 26.1 µM
Km (FRTL-5 cells): 30 µM

[131IH] [^131I^−]
Actual dose to the thyroid, due to iodine organification [2]: 1300 rad/mCi
Whole body dose [2]: 0.71 rad/mCi

[Na+].[O]=[188Re](=[O])(=[O])[O-] [^188ReO4^−, Na perrhenate Na^188ReO4]
Tumor growth [3]: Tumor growth stabilization
Apoptotic cells in tumors (NAFA-cells xenografts): significantly higher number of apoptotic cells
Concentration gradient in hNIS-transfected in comparison to non-transfected cells (hNIS; MDCK cells): 14 fold
Whole body dose relative to ^131I^− [4]: ~2 times
Tumor to normal organ ratio (RI) ([1]; 20 min, blood): 0.41
Tumor to normal organ ratio (RI) ([1]; 20 min, kidneys): 1.22
Tumor to normal organ ratio (RI) ([1]; 20 min, liver): 1.27
Tumor to normal organ ratio (RI) ([1]; 20 min, muscle): 8.21
Tumor to normal organ ratio (RI) ([1]; 20 min, salivary glands): 1.46
Tumor to normal organ ratio (RI) ([1]; 20 min, spleen): 1.39
Tumor to normal organ ratio (RI) ([1]; 20 min, stomach): 0.10
Tumor to normal organ ratio (RI) ([1]; 20 min, thyroid): 0.52
Tumor to normal organ ratio (RI) ([1]; 20 min, tumor): 1.00
Tumor to normal organ ratio (RI) ([1]; 2 hr, blood): 0.54
Tumor to normal organ ratio (RI) ([1]; 2 hr, kidneys): 1.40
Tumor to normal organ ratio (RI) ([1]; 2 hr, liver): 1.43
Tumor to normal organ ratio (RI) ([1]; 2 hr, muscle): 5.22
Tumor to normal organ ratio (RI) ([1]; 2 hr, salivary glands): 0.54
Tumor to normal organ ratio (RI) ([1]; 2 hr, spleen): 2.99
Tumor to normal organ ratio (RI) ([1]; 2 hr, stomach): 0.08
Tumor to normal organ ratio (RI) ([1]; 2 hr, thyroid): 0.25
Tumor to normal organ ratio (RI) ([1]; 2 hr, tumor): 1.00
Tumor to normal organ ratio (RI) ([1]; 24 hr, blood): 1.45
Tumor to normal organ ratio (RI) ([1]; 24 hr, kidneys): 3.08
Tumor to normal organ ratio (RI) ([1]; 24 hr, liver): 8.00
Tumor to normal organ ratio (RI) ([1]; 24 hr, muscle): 12.50
Tumor to normal organ ratio (RI) ([1]; 24 hr, salivary glands): 2.85
Tumor to normal organ ratio (RI) ([1]; 24 hr, spleen): 10.00
Tumor to normal organ ratio (RI) ([1]; 24 hr, stomach): 0.17
Tumor to normal organ ratio (RI) ([1]; 24 hr, thyroid): 2.00
Tumor to normal organ ratio (RI) ([1]; 24 hr, tumor): 1.00
Damage to normal NIS-containing structures (thyroid, stomach histology) ([5]; 80 days, hematoxylin and eosin): absence of damage
Weight loss or gastrointestinal toxicity ([5]; observed for 80 days): No weight loss or other gastrointestinal toxicity

[Na+].[O]=[Re](=[O])(=[O])[O-] [^188ReO4^−, Na perrhenate Na^188ReO4]
Km (hNIS): 12.6 µM

Reference: patent publication US7709613B2, “Rhenium-188 and rhenium-186 for treatment of tumors expressing a Na+/I− symporter” (priority 2002, dated 2010)
